Experiment [1] has as its target T1, Human immunodeficiency virus type 1 protease (Human immunodeficiency virus 1, UniProt Q72874). The experiment can be described thus: In vitro binding affinity against HIV protease at pH 6.2.
The target in experiment [2] is T1, Human immunodeficiency virus type 1 protease. The experiment can be described thus: Binding affinity towards HIV protease was determined.
Experiment [3] has the same target. Description: ChEBML_157707. To be noted: pH 6.2. As to the method: In vitro binding affinity against HIV protease at pH 6.2 was determined

The term IC50 denotes the midpoint of a concentration-inhibition curve. `Cc1cc(SC2C(=O)CC(CCc3ccc(O)cc3)(C(C)C)OC2=O)c(C(C)(C)C)cc1N(C)C` (configuration not stated) [3-(2-tert-Butyl-4-dimethylamino-5-methyl-phenylsulfanyl)-4-hydroxy-6-[2-(4-hydroxy-phenyl)-ethyl]-6-isopropyl-5,6-dihydro-pyran-2-one] had an IC50 in experiment [1] of 11 nM. On the same count and under the same terms, the result for `Cc1cc(SC2C(=O)CC(CCc3ccccc3)(c3ccccc3)OC2=O)c(C(C)(C)C)cc1N` (configuration not stated) [3-(4-Amino-2-tert-butyl-5-methyl-phenylsulfanyl)-4-hydroxy-6-phenethyl-6-phenyl-5,6-dihydro-pyran-2-one] reads 11 nM. One may read the Ki as a dissociation constant, usually derived from enzyme kinetics or from competition with a known ligand. A higher Ki goes with lower affinity. Turning to `Cc1cc(SC2C(=O)C[C@@](CCc3ccc(O)cc3)(C(C)C)OC2=O)c(C(C)(C)C)cc1N` (stereo partly drawn) [(6S)-3-[(4-amino-2-tert-butyl-5-methylphenyl)sulfanyl]-4-hydroxy-6-[2-(4-hydroxyphenyl)ethyl]-6-(propan-2-yl)-5,6-dihydro-2H-pyran-2-one], the inhibitory constant (Ki) in experiment [2] and in experiment [3] was 0.07 nM in each case. For `Cc1cc(SC2C(=O)CC(CCc3ccc(O)cc3)(C(C)C)OC2=O)c(C(C)(C)C)cc1NC(=O)c1ccccc1` (configuration not stated) [N-(5-tert-Butyl-4-{4-hydroxy-6-[2-(4-hydroxy-phenyl)-ethyl]-6-isopropyl-2-oxo-5,6-dihydro-2H-pyran-3-ylsulfanyl}-2-methyl-phenyl)-benzamide], in experiment [1], the half-inhibitory concentration (IC50) amounted to 13 nM. `Cc1cc(SC2C(=O)CC(CCc3ccc(O)cc3)(C(C)C)OC2=O)c(C(C)(C)C)cc1NC(=O)c1ccncc1` (configuration not stated) [N-(5-tert-Butyl-4-{4-hydroxy-6-[2-(4-hydroxy-phenyl)-ethyl]-6-isopropyl-2-oxo-5,6-dihydro-2H-pyran-3-ylsulfanyl}-2-methyl-phenyl)-isonicotinamide] registered an IC50 in experiment [1] of 5.1 nM. Against the preceding compound, the IC50 is about 2.5-fold lower. The same measure, in the same setting: for `Cc1cc(SC2C(=O)CC(CCc3ccc(O)cc3)(C(C)C)OC2=O)c(C(C)(C)C)cc1NC(=O)c1cccnc1` (configuration not stated) [N-(5-tert-Butyl-4-{4-hydroxy-6-[2-(4-hydroxy-phenyl)-ethyl]-6-isopropyl-2-oxo-5,6-dihydro-2H-pyran-3-ylsulfanyl}-2-methyl-phenyl)-nicotinamide] the value was 5.1 nM.

The values above are taken from BindingDB's records for doi:10.1016/s0960-894x(99)00237-1 (Warner-Lambert, 1999).
